In patent US10196369B2, “Spirocyclic EBI2 modulators” (Sanford Burnham Prebys Medical Discovery Institute, priority 2013, dated 2019):

Target: EBI2 (Homo sapiens, UniProt P32249)
Assay: Cell-based luminescent assay of EBI2 modulation (7a,25-OHC stimulated)
Details: 7a,25-OHC final assay concentration 80 nM, 60 minute incubation
Experimental: To assess EBI2 modulation, the compounds described herein were assayed in the following cell-based luminescent assay:
1) Plated 600 cells/well in 4 μL of assay media into columns 1-48 of a 1536-well assay plate, using a liquid dispenser.
2) Centrifuged plates at 1000 rpm for 1 minute and covered with lids.
3) Incubated overnight at 37° C., 100% relative humidity, 5% CO2.
1) Centrifuged compound plates containing compounds described herein at 500 rpm for 1 minute.
2) Added compounds into assay plate col 5-48 to final concentration 4-5 uM. Added matching amount of DMSO to positive and negative control wells in columns 1-4.
3) Dispensed 2 uL/well of assay media to columns 1-2 for the positive control wells.
4) Added 2 uL/well of 400 nM 7a,25-OHC (final assay concentration=80 nM) in assay media to columns 3-48 for the negative control and test compound wells.
5) Centrifuged plates at 1000 rpm for 1 minute and re-lid plates.
6) Incubated plates at 37° C., 100% relative humidity, 5% CO2 for 60 minutes.
7) Following 60 minute incubation, delivered 2.5 uL of Detection Reagent solution to each assay plate (Columns 1-48) using a liquid handler.
8) Centrifuged plates at 2000 rpm for 2 minutes and re-lid plates.
9) Incubated plates for 60 minutes at 25 degrees in the dark.
10) Read plates using the Viewlux, Envision or other suitable plate reader using a luminescence detection.
The experimental values were normalized by the difference between values from neutral and stimulator control wells in each plate. Then normalized data was corrected to remove systematic plate patterns due to artifacts such as dispensing tip issues etc.

EBI2, sequence (P32249 whole entry): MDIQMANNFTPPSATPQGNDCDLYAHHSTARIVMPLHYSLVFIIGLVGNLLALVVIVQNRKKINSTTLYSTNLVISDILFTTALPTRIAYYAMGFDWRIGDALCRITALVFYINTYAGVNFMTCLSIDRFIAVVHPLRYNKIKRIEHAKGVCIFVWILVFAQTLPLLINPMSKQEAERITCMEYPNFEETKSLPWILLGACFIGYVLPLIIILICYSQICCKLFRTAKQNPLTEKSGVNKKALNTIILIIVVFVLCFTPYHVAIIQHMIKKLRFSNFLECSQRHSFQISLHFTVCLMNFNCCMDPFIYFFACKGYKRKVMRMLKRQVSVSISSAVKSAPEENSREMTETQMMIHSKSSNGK

Row | Compound | IC50
1 | O=C(/C=C/c1ccc(Cl)c(Cl)c1)N1CC2(CCN(C(=O)c3ccc(-c4nnn[nH]4)cc3)CC2)C1 [Compound C31, (2E)-3-(3,4-dichlorophenyl)-1-{7-[(4-(1H-1,2,3,4-tetraazol-5-yl)phenyl)carbonyl]-2,7-diazaspiro[3.5]non-2-yl}prop-2-en-1-one] | 500 to 5000 nM
2 | O=C(C#Cc1ccc(F)cc1)N1CC2(CCN(C(=O)c3ccc(C(F)(F)F)cc3)CC2)C1 [Compound C96, 3-(4-fluorophenyl)-1-(7-{[4-(trifluoromethyl)phenyl]carbonyl}-2,7-diazaspiro[3.5]non-2-yl)prop-2-yn-1-one] | < 100 nM
3 | COc1ccc(C(=O)N2CCC3(CC2)CN(C(=O)C#Cc2ccc(F)cc2)C3)cc1 [Compound C92, 3-(4-fluorophenyl)-1-{7-[(4-methoxyphenyl)carbonyl]-2,7-diazaspiro[3.5]non-2-yl}prop-2-yn-1-one] | 100 to 500 nM
4 | O=C(c1cc2cc(Cl)ccc2[nH]1)N1CCC2(CC1)CN(Cc1ccc(C(F)(F)F)cc1)C2 [Compound C15, 5-chloroindol-2-yl 2-{[4-(trifluoromethyl)phenyl]methyl}-2,7-diazaspiro[3.5]non-7-yl ketone] | 100 to 500 nM
5 | O=C(c1ccc(-c2nnn[nH]2)cc1)N1CC2(CCN(C(=O)c3cc4cc(Cl)ccc4[nH]3)CC2)C1 [Compound C16, 5-chloroindol-2-yl 2-[(4-(1H-1,2,3,4-tetraazol-5-yl)phenyl)carbonyl]-2,7-diazaspiro[3.5]non-7-yl ketone] | 500 to 5000 nM
6 | O=C(/C=C/c1ccc(Cl)c(Cl)c1)N1CC2(CCN(Cc3ccc(C(F)(F)F)c(F)c3)CC2)C1 [Compound C34, (2E)-3-(3,4-dichlorophenyl)-1-(7-{[3-fluoro-4-(trifluoromethyl)phenyl]methyl}-2,7-diazaspiro[3.5]non-2-yl)prop-2-en-1-one] | 100 to 500 nM
7 | O=C(c1cc2cc(Cl)ccc2[nH]1)N1CC2(CCN(Cc3ccc(OC(F)(F)F)cc3)CC2)C1 [Compound C36, 5-chloroindol-2-yl 7-{[4-(trifluoromethoxy)phenyl]methyl}-2,7-diazaspiro[3.5]non-2-yl ketone] | 100 to 500 nM
8 | O=C(/C=C/c1ccc(Br)cc1)N1CC2(CCN(C(=O)c3ccc(-c4nnn[nH]4)cc3)CC2)C1 [Compound C23, (2E)-3-(4-bromophenyl)-1-{7-[(4-(1H-1,2,3,4-tetraazol-5-yl)phenyl)carbonyl]-2,7-diazaspiro[3.5]non-2-yl}prop-2-en-1-one] | 100 to 500 nM
9 | O=C(c1cc2cc(Br)ccc2[nH]1)N1CC2(CCN(C(=O)c3ccc(F)cc3C(F)(F)F)CC2)C1 [Compound C48, 5-bromoindol-2-yl 7-{[4-fluoro-2-(trifluoromethyl)phenyl]carbonyl}-2,7-diazaspiro[3.5]non-2-yl ketone] | < 100 nM
10 | O=C(C#Cc1ccc(F)cc1)N1CC2(CCN(C(=O)c3ccc(Cl)cc3)CC2)C1 [Compound C94, 1-{7-[(4-chlorophenyl)carbonyl]-2,7-diazaspiro[3.5]non-2-yl}-3-(4-fluorophenyl)prop-2-yn-1-one] | 100 to 500 nM
11 | O=C(c1cc2cc(Cl)ccc2[nH]1)N1CCC2(CC1)CN(Cc1ccc(C(F)(F)F)c(F)c1)C2 [Compound C14, 5-chloroindol-2-yl 2-{[3-fluoro-4-(trifluoromethyl)phenyl]methyl}-2,7-diazaspiro[3.5]non-7-yl ketone] | 100 to 500 nM
12 | O=C(C#Cc1ccc(Cl)cc1)N1CCC2(CC1)CN(C(=O)c1ccc(F)cc1)C2 [Compound C77, 3-(4-chlorophenyl)-1-{2-[(4-fluorophenyl)carbonyl]-2,7-diazaspiro[3.5]non-7-yl}prop-2-yn-1-one] | < 100 nM
13 | Nc1ccc(C(=O)N2CCC3(CC2)CN(C(=O)/C=C/c2ccc(Br)cc2)C3)cc1 [Compound C51, (2E)-1-{7-[(4-aminophenyl)carbonyl]-2,7-diazaspiro[3.5]non-2-yl}-3-(4-bromophenyl)prop-2-en-1-one] | < 100 nM

More lines, now with the values ahead:

Row | IC50 | Compound
14 | < 100 nM | O=C(/C=C/c1ccc(Br)cc1)N1CC2(CCN(C(=O)c3ccc(Cl)cc3)CC2)C1 [Compound C19, (2E)-3-(4-bromophenyl)-1-{7-[(4-chlorophenyl)carbonyl]-2,7-diazaspiro[3.5]non-2-yl}prop-2-en-1-one]
15 | < 100 nM | O=C(c1cc2cc(Cl)ccc2[nH]1)N1CCC2(CC1)CN(Cc1ccc(F)cc1)C2 [Compound C17, 5-chloroindol-2-yl 2-[(4-fluorophenyl)methyl]-2,7-diazaspiro[3.5]non-7-yl ketone]
16 | 100 to 500 nM | O=C(/C=C/c1ccc(Br)cc1)N1CC2(CCN(Cc3ccc(Cl)cc3)CC2)C1 [Compound C26, (2E)-3-(4-bromophenyl)-1-{7-[(4-chlorophenyl)methyl]-2,7-diazaspiro[3.5]non-2-yl}prop-2-en-1-one]
17 | < 100 nM | O=C(/C=C/c1ccc(Br)cc1)N1CCC2(CC1)CN(C(=O)c1ccc(Cl)cc1)C2 [Compound L1, (2E)-3-(4-bromophenyl)-1-{2-[(4-chlorophenyl)carbonyl]-2,7-diazaspiro[3.5]non-7-yl}prop-2-en-1-one]
18 | 100 to 500 nM | O=C(C#Cc1ccc(Br)cc1)N1CCC2(CC1)CN(C(=O)c1ccc(Cl)cc1)C2 [Compound C70, 3-(4-bromophenyl)-1-{2-[(4-chlorophenyl)carbonyl]-2,7-diazaspiro[3.5]non-7-yl}prop-2-yn-1-one]
19 | < 100 nM | O=C(C#Cc1ccc(Br)cc1)N1CCC2(CC1)CN(Cc1ccc(F)cc1)C2 [Compound C68, 3-(4-bromophenyl)-1-{2-[(4-fluorophenyl)methyl]-2,7-diazaspiro[3.5]non-7-yl}prop-2-yn-1-one]
20 | 100 to 500 nM | O=C(/C=C/c1ccc(Br)cc1)N1CC2(CCN(Cc3ccc(F)c(C(F)(F)F)c3)CC2)C1 [Compound C27, (2E)-3-(4-bromophenyl)-1-(7-{[4-fluoro-3-(trifluoromethyl)phenyl]methyl}-2,7-diazaspiro[3.5]non-2-yl)prop-2-en-1-one]
21 | 500 to 5000 nM | O=C(C#Cc1ccc(Cl)cc1)N1CC2(CCN(Cc3ccc(C(F)(F)F)cc3)CC2)C1 [Compound C83, 3-(4-chlorophenyl)-1-(7-{[4-(trifluoromethyl)phenyl]methyl}-2,7-diazaspiro[3.5]non-2-yl)prop-2-yn-1-one]
22 | < 100 nM | O=C(/C=C/c1ccc(Br)cc1)N1CCC2(CC1)CN(C(=O)c1ccc(F)cc1)C2 [Compound C53, (2E)-3-(4-bromophenyl)-1-{2-[(4-fluorophenyl)carbonyl]-2,7-diazaspiro[3.5]non-7-yl}prop-2-en-1-one]
23 | 500 to 5000 nM | O=C(C#Cc1ccc(F)cc1)N1CC2(CCN(C(=O)c3ccc(F)cc3)CC2)C1 [Compound C93, 3-(4-fluorophenyl)-1-{7-[(4-fluorophenyl)carbonyl]-2,7-diazaspiro[3.5]non-2-yl}prop-2-yn-1-one]
24 | < 100 nM | O=C(/C=C/c1ccc(Br)cc1)N1CCC2(CC1)CN(C(=O)c1ccc(F)cc1C(F)(F)F)C2 [Compound C52, (2E)-3-(4-bromophenyl)-1-(2-{[4-fluoro-2-(trifluoromethyl)phenyl]carbonyl}-2,7-diazaspiro[3.5]non-7-yl)prop-2-en-1-one]
25 | 100 to 500 nM | O=C(/C=C/c1ccc(Br)cc1)N1CC2(CCN(Cc3cc(C(F)(F)F)cc(C(F)(F)F)c3)CC2)C1 [Compound C24, (2E)-1-(7-{[3,5-bis(trifluoromethyl)phenyl]methyl}-2,7-diazaspiro[3.5]non-2-yl)-3-(4-bromophenyl)prop-2-en-1-one]
26 | 100 to 500 nM | bromophenyl)-1-{2-[(4-bromophenyl)carbonyl]-2,7-diazaspiro[3.5]non-7-yl}prop-2-yn-1-one [Compound C66]
27 | < 100 nM | O=C(/C=C/c1ccc(Cl)c(Cl)c1)N1CCC2(CC1)CN(C(=O)/C=C/c1ccc(Cl)c(Cl)c1)C2 [Compound C35, (2E)-1-{2-[(2E)-3-(3,4-dichlorophenyl)prop-2-enoyl]-2,7-diazaspiro[3.5]non-7-yl}-3-(3,4-dichlorophenyl)prop-2-en-1-one]
28 | 100 to 500 nM | COc1ccc(C(=O)N2CC3(CCN(C(=O)C#Cc4ccc(F)cc4)CC3)C2)cc1 [Compound C89, 3-(4-fluorophenyl)-1-{2-[(4-methoxyphenyl)carbonyl]-2,7-diazaspiro[3.5]non-7-yl}prop-2-yn-1-one]
29 | < 100 nM | O=C(/C=C/c1ccc(Br)cc1)N1CCC2(CC1)CN(Cc1ccc(F)cc1)C2 [Compound C8, (2E)-3-(4-bromophenyl)-1-{2-[(4-fluorophenyl)methyl]-2,7-diazaspiro[3.5]non-7-yl}prop-2-en-1-one]
30 | < 100 nM | O=C(c1cc2cc(Cl)ccc2[nH]1)N1CCC2(CC1)CN(Cc1cccc(F)c1)C2 [Compound C4, 5-chloroindol-2-yl 2-[(3-fluorophenyl)methyl]-2,7-diazaspiro[3.5]non-7-yl ketone]
31 | 100 to 500 nM | O=C(C#Cc1ccc2c(c1)OCO2)N1CCC2(CC1)CN(C(=O)c1ccc(Cl)cc1)C2 [Compound C98, 3-(2H-benzo[3,4-d]1,3-dioxolen-5-yl)-1-{2-[(4-chlorophenyl)carbonyl]-2,7-diazaspiro[3.5]non-7-yl}prop-2-yn-1-one]
32 | < 100 nM | O=C(/C=C/c1ccc(Br)cc1)N1CCC2(CC1)CN(C(=O)/C=C/c1ccc(Br)cc1)C2 [Compound C1, (2E)-1-{7-[(2E)-3-(4-bromophenyl)prop-2-enoyl]-2,7-diazaspiro[3.5]non-2-yl}-3-(4-bromophenyl)prop-2-en-1-one]
